Among the data in US6821980B1, “Substituted 5-benzyl-2,4-diaminopyrimidines” (Basilea Pharmaceutica AG, priority 1999, dated 2004) are MIC and IC50 values, retold here.

Test [1] has as its system Streptococcus pneumoniae 1/1. The test can be described thus: MIC against Streptococcus pneumoniae 1/1. It counts as cell-based. To be noted: Streptococcus pneumoniae 1/1, trimethoprim- and penicillin-resistant, serotype 6, clinical isolate, read-out: MIC Sp1/1.
The test system of test [2] is Staphylococcus aureus 101. The test can be described thus: MIC against Staphylococcus aureus 101. It counts as cell-based. To be noted: Staphylococcus aureus 101, MRSA- and trimethoprim-resistant, clinical isolate, read-out: MIC Sa101.
Test [3] deals with T1, purified DHFR of strain Sp1/1 of Streptococcus pneumoniae (Streptococcus pneumoniae serotype 4, UniProt Q54801).
T1 sequence (Q54801 1-168 I100L): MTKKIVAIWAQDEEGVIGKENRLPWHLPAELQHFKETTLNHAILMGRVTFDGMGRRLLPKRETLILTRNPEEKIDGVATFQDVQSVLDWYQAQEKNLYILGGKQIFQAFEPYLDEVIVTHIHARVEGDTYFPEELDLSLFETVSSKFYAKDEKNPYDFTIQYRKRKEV
Type of test: biochemical. To be noted: IC50 against purified DHFR of strain Sp1/1.

The target of test [4] is purified DHFR of strain 157/4696 of Staphylococcus aureus (Staphylococcus aureus, UniProt P13955). The test can be described thus: biochemical.
purified DHFR of strain 157/4696 of Staphylococcus aureus, sequence (P13955 whole entry): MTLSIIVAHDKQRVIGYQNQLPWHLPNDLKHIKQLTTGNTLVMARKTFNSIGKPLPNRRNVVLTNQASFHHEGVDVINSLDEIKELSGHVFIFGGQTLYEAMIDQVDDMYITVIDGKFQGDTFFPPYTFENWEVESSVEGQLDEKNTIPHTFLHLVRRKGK

Converted amounts (≈) assume the structure as drawn. Like-named read-outs stand apart in the source and are kept apart here.

As to `CCOc1cc(Cc2cnc(N)nc2N)cc(OCC2CCC2)c1-c1ccc2c(c1)OCO2` [Example 10-a, 5-(4-Benzof[1.3]dioxol-5-yl-3-cyclobutylmethoxy-5-ethoxy-benzyl)-pyrimidine-2,4-diamine], the MIC in test [1] (Table 2) and in test [2] (Table 2) was 8 µg/mL (≈ 17.8 µM) in each case. Besides, the IC50 in test [3] (Table 2) came out at 34 nM; in test [4] it was 1400 nM.

For the compound `CCOc1cc(Cc2cnc(N)nc2N)cc(OCC2CC2)c1-c1ccc2c(c1)OCO2` [Example 10-b, 5-(4-Benzo[1.3]dioxol-5-yl-3-cyclopropylmethoxy-5-ethoxy-benzyl)-pyrimidine-2,4-diamine], the MIC was found to be 2 µg/mL (≈ 4.6 µM) in test [1] (Table 2) and 8 µg/mL (≈ 18.4 µM) in test [2] (Table 2). The IC50 amounted to 40 nM in test [3] (Table 2) and 2400 nM in test [4].

Take `CCOc1cc(Cc2cnc(N)nc2N)cc(OCC(C)C)c1-c1ccc2c(c1)OCO2` [Example 10-c, 5-(4-Benzo[1,3]dioxol-5-yl-3-ethoxy-5-isobutoxy-benzyl)-pyrimidine-2,4-diamine]: the MIC in test [1] (Table 2) turned out to be 4 µg/mL (≈ 9.16 µM); in test [2] (Table 2) it was 8 µg/mL (≈ 18.3 µM). The IC50 in test [3] (Table 2) stood at 11 nM; in test [4] it was 5000 nM.

Regarding `CCOc1cc(Cc2cnc(N)nc2N)cc(OC2CCCC2)c1-c1ccc2c(c1)OCO2` [Example 10-d, 5-(4-Benzo[1,3]dioxol-5-yl-3-cyclopentyloxy-5-ethoxy-benzyl)-pyrimidine-2,4-diamine], the MIC in test [1] (Table 2) came to 8 µg/mL (≈ 17.8 µM); in test [2] (Table 2) it was 4 µg/mL (≈ 8.92 µM). The results for the IC50 in test [3] (Table 2) and in test [4] were 42 nM and 1700 nM, respectively.

`CCOc1cc(Cc2cnc(N)nc2N)cc(OC2CCC2)c1-c1ccc2c(c1)OCO2` [Example 10-e, 5-(4-Benzo[1.31]dioxol-5-yl-3-cyclobutoxy-5-ethoxy-benzyl)-pyrmidine-2,4-diamine]: the MIC in test [1] (Table 2) and in test [2] (Table 2) was 8 µg/mL (≈ 18.4 µM) throughout. Also, the IC50 was 50 nM in test [3] (Table 2) and 1800 nM in test [4].

Consider `C=C(C)COc1cc(Cc2cnc(N)nc2N)cc(OCC)c1-c1ccc2c(c1)OCO2` [Example 10-f, 5-[4-Benzo[1.3]dioxol-5-yl-3-ethoxy-5-(2-methyl-allyloxy)-benzyl]-pyrimidine-2,4-diamine], for which the MIC in test [1] (Table 2) and in test [2] (Table 2) was 8 µg/mL (≈ 18.4 µM) throughout. Besides, the IC50 in test [3] (Table 2) is 85 nM; in test [4] it was 1800 nM.

In the case of `CCOc1cc(Cc2cnc(N)nc2N)cc(OCC2CC2)c1-c1ccc(N)c(C)c1` [Example 11-a], the values for the MIC in test [1] (Table 2) and in test [2] (Table 2) were 1 µg/mL (≈ 2.38 µM) and 8 µg/mL (≈ 19.1 µM), respectively. Besides, the half-inhibitory concentration (IC50) in test [3] (Table 2) is 18 nM; in test [4], 1800 nM.

With `CCOc1cc(Cc2cnc(N)nc2N)cc(OCC2CC2)c1-c1ccc(OC)c(N)c1` [Example 12-, 5-(3′-Amino-2-cyclopropylmethoxy-6-ethoxy-4′-methoxy-biphenyl-4-ylmethl)-pyrimidine-2,4-diamine], the values for the MIC in test [1] (Table 2) and in test [2] (Table 2) were 2 µg/mL (≈ 4.59 µM) and 8 µg/mL (≈ 18.4 µM), respectively. The values for the IC50 in test [3] (Table 2) and in test [4] were 14 nM and 1800 nM, respectively.

In the case of `CCOc1cc(Cc2cnc(N)nc2N)cc(OCC2CC2)c1-c1ccc(N)cc1` [Example 13-, 5-(4′-Amino-2-cyclopropylmethoxy-6-ethoxy-biphenyl-4-ylmethyl)-pyrimidine-2,4-diamine], the MIC was 2 µg/mL (≈ 4.93 µM) in test [1] (Table 2) and 8 µg/mL (≈ 19.7 µM) in test [2] (Table 2). Further, the figures for the concentration for half-maximal inhibition (IC50) in test [3] (Table 2) and in test [4] were 16 nM and 1400 nM, respectively.

In the case of `CCOc1cc(Cc2cnc(N)nc2N)cc(OS(C)(=O)=O)c1-c1cccc(N)c1` [Example 14-a, Methanesulphonic acid 3′-amino-4-(2,4-diamino-gyrimidin-5-ylmethyl)-6-ethoxy-biphenyl-2-yl ester], the MIC in test [1] (Table 2) stood at 4 µg/mL (≈ 9.31 µM); in test [2] (Table 2), 8 µg/mL (≈ 18.6 µM). Further, the IC50 was 23 nM in test [3] (Table 2) and 350 nM in test [4].

As to `CCOc1cc(Cc2cnc(N)nc2N)cc(OS(=O)(=O)CC)c1-c1cccc(N)c1` [Example 14-b, Ethanesulphonic acid 3′-amino-4-(2,4-diamino-pyrimidin-5-ylmethyl)-6-ethoxy-biphenyl-2-yl ester], the MIC in test [1] (Table 2) and in test [2] (Table 2) was 2 µg/mL (≈ 4.51 µM) in each case. Besides, the IC50 in test [3] (Table 2) came to 19 nM; in test [4], 140 nM.

Turning to `CCCS(=O)(=O)Oc1cc(Cc2cnc(N)nc2N)cc(OCC)c1-c1cccc(N)c1` [Example 14-d], the MIC in test [1] (Table 2) worked out at 1 µg/mL (≈ 2.19 µM); in test [2] (Table 2) it was 2 µg/mL (≈ 4.37 µM). In addition, the results for the IC50 in test [3] (Table 2) and in test [4] were 16 nM and 82 nM, respectively.

On to `CCOc1cc(Cc2cnc(N)nc2N)cc(OS(=O)(=O)c2ccc(OC)c(F)c2)c1-c1cccc(N)c1` [Example 14-e, 3-Fluoro-4-methoxy-benzenesulphonic acid 3′-amino-4-(2,4-diamino-pyrimidin-5-ylmethyl)-6-ethoxy-biphenyl-2-yl ester], for which the MIC in test [1] (Table 2) amounted to 1 µg/mL (≈ 1.85 µM); in test [2] (Table 2) it was 8 µg/mL (≈ 14.8 µM). Moreover, the IC50 in test [3] (Table 2) stood at 12 nM; in test [4], 410 nM.

Consider `CCOc1cc(Cc2cnc(N)nc2N)cc(OS(=O)(=O)c2cccs2)c1-c1cccc(N)c1` [Example 14-f, Thiophene-2-sulphonic acid 3′-amino-4-(2,4-diamino-pyrimidin-5-ylmethyl)-6-ethoxy-biphenyl-2-yl ester], for which the MIC in test [1] (Table 2) was determined as 1 µg/mL (≈ 2.01 µM); in test [2] (Table 2), 4 µg/mL (≈ 8.04 µM). For the same compound, the IC50 is 1.8 nM in test [3] (Table 2) and 320 nM in test [4].

`CCOc1cc(Cc2cnc(N)nc2N)cc(OS(=O)(=O)CC(C)C)c1-c1cccc(N)c1` [Example 14-h, 2-Methyl-propane-1-sulphonic acid 3′-amino-4-(2,4-diamino-Dyrimidin-5-ylmethyl)-6-ethoxy-biphenyl-2-yl ester]: the MIC came out at 0.5 µg/mL (≈ 1.06 µM) in test [1] (Table 2) and 2 µg/mL (≈ 4.24 µM) in test [2] (Table 2). Also, the IC50 in test [3] (Table 2) was found to be 4.8 nM; in test [4], 320 nM.

In the case of `CCOc1cc(Cc2cnc(N)nc2N)cc(OS(=O)(=O)CC(C)(C)C)c1-c1cccc(N)c1` [Example 14-i, 2,2-Dimethyl-propane-1-sulphonic acid 3′-amino-4-(2,4-diamino-pyrimidin-5-ylmethyl)-6-ethoxy-biphenyl-2-yl ester], the values for the MIC in test [1] (Table 2) and in test [2] (Table 2) were 0.5 µg/mL (≈ 1.03 µM) and 8 µg/mL (≈ 16.5 µM), respectively. Further, the IC50 in test [3] (Table 2) came to 5.4 nM; in test [4] it was 220 nM.

Consider `CCOc1cc(Cc2cnc(N)nc2N)cc(OS(=O)(=O)C(C)C)c1-c1cccc(N)c1` [Example 14c, Propane-2-sulphonic acid 3′-amino-4-(2,4-diamino-pyrimidin-5-ylmethyl)-6-ethoxy-biphenyl-2-yl ester], for which the MIC in test [1] (Table 1) and in test [2] (Table 1) was 1 µg/mL (≈ 2.19 µM) each time. For the same compound, the IC50 was 20 nM in test [3] (Table 1) and 61 nM in test [4].

As to `CCOc1cc(Cc2cnc(N)nc2N)cc(OS(=O)(=O)C(C)CC)c1-c1cccc(N)c1` (stereo not drawn) [Example 14g, Butane-2-sulphonic acid 3′-amino-4-(2,4-diamino-pvrimidin-5-ylmethyl)-6-ethoxy-biphenyl-2-yl ester], the MIC in test [1] (Table 1) and in test [2] (Table 1) was 1 µg/mL (≈ 2.12 µM) throughout. The half-maximal inhibitory concentration (IC50) came to 3.7 nM in test [3] (Table 1) and 30 nM in test [4].

For `CCOc1cc(Cc2cnc(N)nc2N)cc(OS(C)(=O)=O)c1-c1ccc(O)cc1` [Example 15-a, Methanesulphonic acid 4-(2,4-diamino-pyrimidin-5-ylmethyl)-6-ethoxy-4′-hydroxy-biphenyl-2-yl ester], the MIC amounted to 4 µg/mL (≈ 9.29 µM) in test [1] (Table 2) and 8 µg/mL (≈ 18.6 µM) in test [2] (Table 2). The IC50 stood at 32 nM in test [3] (Table 2) and 550 nM in test [4].

On to `CCOc1cc(Cc2cnc(N)nc2N)cc(OS(=O)(=O)CC)c1-c1ccc(O)cc1` [Example 15-b, Ethanesulphonic acid 4-(2,4-diamino-pyrimidin-5-ylmethyl)-6-ethoxy-4′-hydroxy-biphenyl-2-yl ester], for which the MIC in test [1] (Table 2) was 2 µg/mL (≈ 4.5 µM); in test [2] (Table 2) it was 4 µg/mL (≈ 9 µM). Also, the IC50 in test [3] (Table 2) was found to be 23 nM; in test [4], 180 nM.

Regarding `CCOc1cc(Cc2cnc(N)nc2N)cc(OS(=O)(=O)C(C)C)c1-c1ccc(O)cc1` [Example 15-c, Propane-2-sulphonic acid 4-(2,4-diamino-pyrimidin-5-ylmethyl)-6-ethoxy-4′-hydroxy-biphenyl-2-yl ester], the MIC in test [1] (Table 2) and in test [2] (Table 2) was 1 µg/mL (≈ 2.18 µM) each time. In addition, the half-maximal inhibitory concentration (IC50) turned out to be 12 nM in test [3] (Table 2) and 64 nM in test [4].

Regarding `CCCS(=O)(=O)Oc1cc(Cc2cnc(N)nc2N)cc(OCC)c1-c1ccc(O)cc1` [Example 15-d, Propane-1-sulphonic acid 4-(2,4-diamino-primidin-5-ylmethyl)-6-ethoxy-4′-hydroxy-biphenyl-2-yl ester], the values for the MIC in test [1] (Table 2) and in test [2] (Table 2) were 1 µg/mL (≈ 2.18 µM) and 2 µg/mL (≈ 4.36 µM), respectively. The IC50 in test [3] (Table 2) came to 18 nM; in test [4] it was 62 nM.

Regarding `CCOc1cc(Cc2cnc(N)nc2N)cc(OS(=O)(=O)C2CC2)c1-c1ccc(O)cc1` [Example 15-e, Cylopropanesulphonic acid 4-(2,4-diamino-pyrimidin-5-ylmethyl)-6-ethoxy-4′-hydroxn-biphenyl-2-yl ester], the MIC was 1 µg/mL (≈ 2.19 µM) in test [1] (Table 2) and 8 µg/mL (≈ 17.5 µM) in test [2] (Table 2). For the same compound, the results for the IC50 in test [3] (Table 2) and in test [4] were 12 nM and 94 nM, respectively.

Regarding `CCOc1cc(Cc2cnc(N)nc2N)cc(OS(=O)(=O)CC(C)C)c1-c1ccc(O)cc1` [Example 15-f, 2-Methyl-propane-1-sulphonic acid 4-(2,4-diamino-pyrimidin-5-ylmethyl)-6-ethoxy-4′-hydroxy-biphenyl-2-yl ester], the MIC in test [1] (Table 2) stood at 0.5 µg/mL (≈ 1.06 µM); in test [2] (Table 2) it was 4 µg/mL (≈ 8.46 µM). For the same compound, the IC50 turned out to be 6.7 nM in test [3] (Table 2) and 380 nM in test [4].

Usually IC50 stands for the concentration needed to halve the response being measured. The low end stands for greater potency in that assay, the high end for weaker potency in that assay.
